The values that follow come from US9884048B2, “ERK inhibitors” (Merck Sharp & Dohme Corp., priority 2014, dated 2018).

In one assay the target is phosphorylated active hERK2 enzyme (Homo sapiens (Human), UniProt P28482).
phosphorylated active hERK2 enzyme, sequence (P28482 whole entry): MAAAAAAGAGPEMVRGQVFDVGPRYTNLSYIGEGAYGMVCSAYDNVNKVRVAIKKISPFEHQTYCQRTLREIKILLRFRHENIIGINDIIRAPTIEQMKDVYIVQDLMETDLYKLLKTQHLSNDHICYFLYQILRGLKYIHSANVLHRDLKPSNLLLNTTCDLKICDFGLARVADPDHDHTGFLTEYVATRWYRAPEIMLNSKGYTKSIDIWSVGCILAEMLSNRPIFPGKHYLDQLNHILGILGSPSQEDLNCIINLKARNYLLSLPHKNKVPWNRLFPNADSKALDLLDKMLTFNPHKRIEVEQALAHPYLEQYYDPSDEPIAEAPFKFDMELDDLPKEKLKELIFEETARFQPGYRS
Conditions: not given
For orientation: IC50 means the concentration at which inhibition is half-maximal. In turn, `Cc1cc(-n2ncc3cc(NC(=O)N[C@H]4CCCC[C@H]4Cc4ccccc4)ncc32)ccn1` (racemic) [Example 167, Racemic cis 1-[(1S,2S) and (1R,2R)-2-benzylcyclohexyl]-3-[1-(2-methylpyridin-4-yl)-1H-pyrazolo[3,4-c]pyridin-5-yl)urea] registered a concentration for half-maximal inhibition (IC50) of 23.1 nM.

The assay is the same for the next values; noted with them: ERK2 IC50, IMAP-FP assay; 0.5 nM hERK2, 30 μM ATP; 10 point titration, 3 μM starting concentration.
Regarding `Cc1cc(-n2ncc3cc(NC(=O)N[C@H]4CCCC[C@@H]4c4ccccc4)ncc32)ccn1` (racemic) [Example 151, Racemic trans 1-[1-(2-methylpyridin-4-yl)-1H-pyrazolo[3,4-c]pyridin-5-yl]-3-[(1S,2R) and (1R,2S)-2-phenylcyclohexyl]urea], the IC50 was found to be 3.65 nM.

Staying with this assay, now noted: read-out: ERK2 IC50; IMAP-FP assay; 0.5 nM hERK2, 30 μM ATP; 10 point titration, 3 μM starting concentration.
On to `Cc1cc(-n2ncc3cc(NC(=O)N[C@H]4CN(C)C[C@@H]4c4ccccc4Cl)ncc32)ccn1` [Example 16, 1-[(3R,4S)-4-(2-chlorophenyl)-1-methylpyrrolidin-3-yl]-3-[1-(2-methylpyridin-4-yl)-1H-pyrazolo[3,4-c]pyridin-5-yl]urea], for which the IC50 was determined as 0.952 nM. Same read-out and setting: the value for `CCN1CC[C@@H](NC(=O)Nc2cc3cnn(-c4ccnc(C)c4)c3cn2)C1` [Example 28, 1-[(3R)-1-ethylpyrrolidin-3-yl]-3-[1-(2-methylpyridin-4-yl)-1H-pyrazolo[3,4-c]pyridin-5-yl]urea] was 104 nM; that for `COC(=O)[C@@H](NC(=O)Nc1cc2cnn(-c3ccnc(C)c3)c2cn1)c1ccccc1` [Example 137, methyl (2S)-({[1-(2-methylpyridin-4-yl)-1H-pyrazolo[3,4-c]pyridin-5-yl]carbamoyl}amino)(phenyl) ethanoate] was 857 nM; that for `Cc1cc(-n2ncc3cc(NC(=O)N[C@H]4CN(C)C[C@@H]4c4ccc(-c5ccccc5)s4)ncc32)ccn1` [Example 155, 1-[(3R,4S)-1-methyl-4-(5-phenylthiophen-2-yl)pyrrolidin-3-yl]-3-[1-(2-methylpyridin-4-yl)-1H-pyrazolo[3,4-c]pyridin-5-yl]urea] was 591 nM.

Take `Cc1cc(-n2ncc3cc(NC(=O)N[C@H]4CCCC[C@@H]4N)ncc32)ccn1` [Example 138, 1-[(1S,2S)-2-aminocyclohexyl]-3-[1-(2-methylpyridin-4-yl)-1H-pyrazolo[3,4-c]pyridin-5-yl]urea]: the half-maximal inhibitory concentration (IC50) came out at 396 nM. For `COC[C@H](NC(=O)Nc1cc2cnn(-c3ccnc(C)c3)c2cn1)c1ccccn1` [Example 209, 1-[(1R)-2-methoxy-1-pyridin-2-ylethyl]-3-[1-(2-methylpyridin-4-yl)-1H-pyrazolo[3,4-c]pyridin-5-yl]urea], the concentration for half-maximal inhibition (IC50) turned out to be 24.5 nM. Consider `Cc1cc(-n2ncc3cc(NC(=O)NCc4c(-c5ccccc5)noc4C)ncc32)ccn1` [Example 114, 1-[(5-methyl-3-phenyl-isoxazol-4-yl)methyl]-3-[1-(2-methylpyridin-4-yl)-1H-pyrazolo[3,4-c]pyridin-5-yl)urea], for which the IC50 worked out at 2.14 nM. The same measure, in the same setting: the result for `Cc1cc(-n2ncc3cc(NC(=O)N[C@H](C)c4ccccc4)nc(COCCOCc4ccccc4)c32)ccn1` [Example 252, 1-[7-{[2-(benzyloxy)ethoxy]methyl}-1-(2-methylpyridin-4-yl)-1H-pyrazolo[3,4-c]pyridin-5-yl]-3-[(1R)-1-phenylethyl]urea] reads 25.3 nM; that for `C[C@@H](NC(=O)Nc1cc2cnn(-c3ccc(F)cc3)c2c(CN(C)C)n1)c1ccccc1` [Example 243, 1-{7-[(dimethylamino)methyl]-1-(4-fluorophenyl)-1H-pyrazolo[3,4-c]pyridin-5-yl}-3-[(1R)-1-phenylethyl]urea], 1580 nM; that for `Cc1cncc(-n2ncc3cc(NC(=O)N[C@H](C)c4ccccc4)ncc32)n1` [Example 211, 1-[1-(6-methylpyrazin-2-yl)-1H-pyrazolo[3,4-c]pyridin-5-yl]-3-[(1R)-1-phenylethyl]urea], 549 nM. For the compound `Cc1cc(-n2ncc3cc(NC(=O)N[C@H]4CN(C)C[C@@H]4c4cnn(C)c4)ncc32)ccn1` [Example 165, 1-[(3R,4S)-1-methyl-4-(1-methyl-1H-pyrazol-4-yl)pyrrolidin-3-yl]-3-[1-(2-methylpyridin-4-yl)-1H-pyrazolo[3,4-c]pyridin-5-yl)urea], the concentration for half-maximal inhibition (IC50) amounted to 831 nM. In the case of `Cc1cc(-n2ncc3cc(NC(=O)N[C@@H](c4ccccc4)C(C)O)ncc32)ccn1` (stereo partly drawn) [Example 297, (S)-1-(2-hydroxy-1-phenylpropyl)-3-(1-(2-methylpyridin-4-yl)-1H-pyrazolo[3,4-c]pyridin-5-yl)urea], the IC50 stood at 1.06 nM. For `Cc1cc(-n2ncc3cc(NC(=O)N[C@H]4CN(C)C[C@@H]4c4ccccc4C(F)(F)F)ncc32)ccn1` [Example 191, 1-[1-(2-methylpyridin-4-yl)-1H-pyrazolo[3,4-c]pyridin-5-yl]-3-{(3R,4S)-1-methyl-4-[2-(trifluoromethyl)-phenyl]pyrrolidin-3-yl}urea], the IC50 came to 0.509 nM.

With `CCNC(=O)[C@@H](NC(=O)Nc1cc2cnn(-c3ccnc(C)c3)c2cn1)c1ccccc1` [Example 141, (2S)-N-ethyl-2-({[1-(2-methylpyridin-4-yl)-1H-pyrazolo[3,4-c]pyridin-5-yl]carbamoyl}amino)-2-phenylethanamide], the IC50 is 2.58 nM. For the compound `Cc1cc(-n2ncc3cc(NC(=O)N[C@@H]4CCN(Cc5c(F)cccc5F)C4)ncc32)ccn1` [Example 283, 1-[(3R)-1-(2,6-difluorobenzyl)pyrrolidin-3-yl]-3-[1-(2-methylpyridin-4-yl)-1H-pyrazolo[3,4-c]pyridin-5-yl]urea], the 50% inhibitory concentration (IC50) was found to be 0.323 nM. On to `O=C(NCc1ccccc1)Nc1cc2cnn(-c3ccncc3)c2cn1` [Example 2, 1-benzyl-3-(1-pyridin-4-yl-1H-pyrazolo[3,4-c]pyridin-5-yl)urea], for which the IC50 stood at 2.7 nM. Still for that read-out and setting: the value for `CO[C@H]1CNC[C@@H]1NC(=O)Nc1cc2cnn(-c3ccnc(C)c3)c2cn1` [Example 132, 1-[(3S,4S)-4-methoxypyrrolidin-3-yl]-3-[1-(2-methylpyridin-4-yl)-1H-pyrazolo[3,4-c]pyridin-5-yl]urea] was 168 nM; that for `Cc1cc(-n2ncc3cc(NC(=O)N[C@H](C)c4ccccc4)ncc32)ccn1` [Example 59, 1-[1-(2-methylpyridin-4-yl)-1H-pyrazolo[3,4-c]pyridin-5-yl]-3-[(1R)-1-phenylethyl]urea] was 1.01 nM; that for `Cc1cc(-n2ncc3cc(NC(=O)N[C@H]4CCC[C@@H]4Oc4ccccc4)ncc32)ccn1` [Example 161, 1-[1-(2-methylpyridin-4-yl)-1H-pyrazolo[3,4-c]pyridin-5-yl]-3-[(1S,2S)-2-phenoxycyclopentyl]urea] was 13.4 nM. For the compound `COC[C@@H](NC(=O)Nc1cc2cnn(C3CCOCC3)c2cn1)c1ccccc1` [Example 259, (S)-1-(2-methoxy-1-phenylethyl)-3-(1-(tetrahydro-2H-pyran-4-yl)-1H-pyrazolo[3,4-c]pyridin-5-yl)urea], the IC50 came out at 196 nM. Same read-out and setting: the result for `CC(C)(C)OC(=O)N1CCc2cnc(-n3ncc4cc(NC(=O)N[C@@H](c5ccc(F)cc5)C(C)(C)O)ncc43)nc2C1` [Example 234, tert-butyl 2-[5-({[(1S)-1-(4-fluorophenyl)-2-hydroxy-2-methylpropyl]carbamoyl}amino)-1H-pyrazolo[3,4-c]pyridin-1-yl]-5,8-dihydropyrido[3,4-d]pyrimidine-7(6H)-carboxylate] reads 1810 nM; that for `Cc1cc(-n2ncc3cc(NC(=O)NCc4cccc(S(C)(=O)=O)c4)ncc32)ccn1` [Example 93, 1-[1-(2-methylpyridin-4-yl)-1H-pyrazolo[3,4-c]pyridin-5-yl]-3-[3-(methylsulfonyl)-benzyl]urea], 1.44 nM; that for `Cc1cc(-n2ncc3cc(NC(=O)NCCF)ncc32)ccn1` [Example 110, 1-(2-fluoroethyl)-3-[1-(2-methylpyridin-4-yl)-1H-pyrazolo[3,4-c]pyridin-5-yl]urea], 106 nM. Same read-out and setting: the value for `O=C(NCc1cccnc1)Nc1cc2cnn(-c3ccncc3)c2cn1` [Example 39, 1-(pyridin-3-ylmethyl)-3-(1-pyridin-4-yl-1H-pyrazolo[3,4-c]pyridin-5-yl)urea] was 171 nM. On to `Cc1cc(-n2ncc3cc(NC(=O)N[C@H]4CN(C)C[C@@H]4c4ccccc4)ncc32)ccn1` [Example 182, 1-((3R,4S)1-methyl-4-phenyl-pyrrolidin-3-yl)-3-[1-(2-methyl-pyridin-4-yl)-1H-pyrazolo[3,4-c]pyridin-5-yl]urea], for which the IC50 is 59.7 nM. Consider `C[C@@H](NC(=O)Nc1cc2cnn(C3CCCC3)c2c(CO)n1)c1ccccc1` [Example 307, 1-[1-cyclopentyl-7-(hydroxymethyl)-1H-pyrazolo[3,4-c]pyridin-5-yl]-3-[(1R)-1-phenylethyl]urea], for which the IC50 stood at 125 nM. Still for that read-out and setting: the value for `C[C@@H](NC(=O)Nc1cc2cnn(-c3ccc(F)cc3)c2cn1)c1ccc(F)cc1` [Example 3, 1-[(1R)-1-(4-fluorophenyl)ethyl]-3-[1-(4-fluorophenyl)-1H-pyrazolo[3,4-c]pyridin-5-yl)urea] was 10.6 nM; that for `COCc1nc(NC(=O)N[C@H](C)c2ccccc2)cc2cnn(-c3ccc(F)cc3)c12` [Example 241, 1-[1-(4-fluorophenyl)-7-(methoxymethyl)-1H-pyrazolo[3,4-c]pyridin-5-yl]-3-[(1R)-1-phenylethyl]urea] was 55.9 nM. Regarding `Cc1cc(-n2ncc3cc(NC(=O)NC(C)c4csc(C)n4)ncc32)ccn1` (stereo not drawn) [Example 131, 1-[1-(2-methylpyridin-4-yl)-1H-pyrazolo[3,4-c]pyridin-5-yl]-3-[1-(2-methyl-1,3-thiazol-4-yl)ethyl]urea], the IC50 is 10.9 nM. `Cc1cc(-n2ncc3cc(NC(=O)NCC(c4ccccn4)N4CCOCC4)ncc32)ccn1` (stereo not drawn) [Example 73, 1-[1-(2-methylpyridin-4-yl)-1H-pyrazolo[3,4-c]pyridin-5-yl]-3-(2-morpholin-4-yl-2-pyridin-2-ylethyl)urea]: the IC50 turned out to be 243 nM. For the compound `Cc1cc(-n2ncc3cc(NC(=O)N[C@H]4CN(C)C[C@@H]4Oc4cncc(F)c4)ncc32)ccn1` [Example 276, 1-{(3S,4S)-4-[(5-fluoropyridin-3-yl)oxy]-1-methylpyrrolidin-3-yl}-3-[1-(2-methylpyridin-4-yl)-1H-pyrazolo[3,4-c]pyridin-5-yl]urea], the IC50 was determined as 242 nM.
